Results as given in patent US6440986B2, “HIV Inhibiting pyrimidine derivatives” (Janssen Pharmaceutica, N.V., priority 1998, dated 2002).
Where a name gives a salt, the structure may show the parent alone. Read-outs that look alike come from different tables or passages of the source.

How the values were obtained:
HIV-1 = assay: in vitro anti-HIV assay: inhibition of the HIV-induced cytopathic effect in MT-4 cells (MTT); type: cell-based; settings: OD 540 nm
Description: (§1) A rapid, sensitive and automated assay procedure was used for the in vitro evaluation of anti-HIV agents. An HIV-1 transformed T4-cell line, MT-4, which was previously shown (Koyanagi et al., Int. J. Cancer, 36, 445-451, 1985) to be highly susceptible to and permissive for HIV infection, served as the target cell line. Inhibition of the HIV-induced cytopathic effect was used as the end point. The viability of both HIV- and mock-infected cells was assessed spectrophotometrically via the in situ reduction of 3-(4,5-dimethylthiazol-2-yl)-2,5-diphenyltetrazolium bromide (MTT). […] The percent protection achieved by the compound in HIV-infected cells was calculated by the following formula: [formula]
(§2) whereby (ODT)HIV is the optical density measured with a given concentration of the test compound in HIV-infected cells; (ODC)HIV is the optical density measured for the control untreated HIV-infected cells: (ODC)MOCK is the optical density measured for the control untreated mock-infected cells; all optical density values were determined at 540 nm. […] The ratio of CC50 to IC50 was defined as the selectivity index (SI).

[1] = cytotoxicity in mock-infected MT-4 cells (MTT); type: cell-based; settings: human, mock-infected MT-4 cells, 50% cytotoxic concentration; reduces absorbance of mock-infected MT-4 control by 50%; MTT
Description: as §1, with “An HIV-1 transformed T4-cell line, MT-4, which was previously shown (Koyanagi et al., Int. J. Cancer, 36, 445-451, 1985) to be highly susceptible to and permissive for HIV infection, served as the target cell line.” left out
as §2

[2] = tested on: MT-4 cells (mock-infected); assay: cytotoxicity in mock-infected MT-4 cells (MTT); type: cell-based
Description: as §1, with “An HIV-1 transformed T4-cell line, MT-4, which was previously shown (Koyanagi et al., Int. J. Cancer, 36, 445-451, 1985) to be highly susceptible to and permissive for HIV infection, served as the target cell line.” left out
as §2

[3] = Human immunodeficiency virus 1, MT4, dose achieving 50% protection of HIV-infected MT-4 cells against cytopathic effect
[4] = dose achieving 50% protection of HIV-infected MT-4 cells against cytopathic effect
[5] = 50% cytotoxic concentration, reduces absorbance of mock-infected MT-4 control by 50%, MTT, read-out: CC50

| Compound | IC50 (HIV-1; [4]) [µM] | CC50 [2] [µM] | other results |
| --- | --- | --- | --- |
| N#Cc1ccc(Nc2nc(Cc3c(Cl)cccc3Cl)cc(NCCN3CCCC3)n2)cc1 [Compound 13, 4-[[4-[(2,6-dichloro-phenyl)methyl]-6-[[2-(1-pyrrolidinyl)ethyl]amino]-2-pyrimidinyl]amino]benzonitrile] |  |  | IC50 (HIV-1; [3]): 0.005 µM; CC50 [1]: 7.8 µM; melting point: 80 to 85 °C |
| CN(C)C=Nc1cc(Cc2c(Cl)cccc2Cl)nc(Nc2ccc(C#N)cc2)n1 [Compound 26, N′-[2-[(4-cyanophenyl)amino]-6-[(2,6-dichlorophenyl)methyl]-4-pyrimidinyl]-N,N-dimethylmethanimidamide] |  |  | IC50 (HIV-1; [3]): 0.011 µM; CC50 [1]: 33.5 µM; melting point: 175 to 180 °C |
| N#Cc1ccc(Nc2cc(Cc3c(Cl)cccc3Cl)nc(NCCCN3CCCC3=O)n2)cc1 [Compound 39, 4-[[6-[(2,6-dichloro-phenyl)methyl]-2-[[3-(2-oxo-1-pyrrolidinyl)propyl]amino]-4-pyrimidinyl]amino]benzonitrile] |  |  | IC50 (HIV-1; [3]): 1.53 µM; CC50 [1]: > 100 µM |
| Cc1cnc(Nc2ccc(C#N)cc2)nc1Nc1c(C)cc(C#N)cc1C [Compound 89, 4-[[2-[(4-cyanophenyl)amino]-5-methyl-4-pyrimidinyl]amino]-3,5-dimethylbenzonitrile] |  |  | IC50 (HIV-1; [3]): 0.0007 µM; CC50 [1]: 0.4 µM |
| N#Cc1ccc(Nc2nc(Cc3c(Cl)cccc3Cl)cc(NC(=O)CN3CCCCC3)n2)cc1 [Compound 25, N-[6-[(2,6-dichloro-phenyl)methyl]-2-[(4-cyano-phenyl)amino]-4-pyrimidinyl]-1-piperidine-acetamide] |  |  | IC50 (HIV-1; [3]): 0.079 µM; CC50 [1]: > 100 µM; melting point: 175 to 180 °C |
| Cc1cc(C)c(Nc2ccnc(Nc3ccc(C#N)cc3)n2)c(C)c1 [Compound 52, 4-[[4-[(2,4,6-trimethylphenyl)amino]-2-pyrimidinyl]amino]benzonitrile] |  |  | IC50 (HIV-1; [3]): 0.001 µM; CC50 [1]: 2.08 µM |
| Cc1cc(C)c(Nc2ccnc(Nc3ccc(C(N)=O)cc3)n2)c(C)c1 [Compound 100, 4-[[4-[(2,4,6-trimethylphenyl)amino]-2-pyrimidinyl]amino]benzamide] |  |  | IC50 (HIV-1; [3]): 0.075 µM; CC50 [1]: 0.8 µM |
| Cc1c(N)nc(Nc2ccc(Br)cc2)nc1Cc1c(Cl)cccc1Cl [Compound 49] | 0.058 |  | CC50 [2, 5]: 45.2 µM |
| N#Cc1ccc(Nc2cc(N)nc(Cc3c(Cl)cccc3Cl)n2)cc1 [Compound 51] | 0.452 | > 100 |  |
| Nc1nc(Cc2c(Cl)cccc2Cl)cc(Nc2ccc(Br)cc2)n1 [Compound 28] | 0.079 |  | CC50 [2, 5]: > 20 µM |
| Cc1cc(C)c(Nc2ccnc(Nc3ccc(Br)cn3)n2)c(C)c1 [Compound 98] | 2 | 13.8 |  |
| Cc1cc(Cl)cc(C)c1Nc1ccnc(Nc2ccc(C#N)cc2)n1 [Compound 75] | 0.0021 | 1.9 |  |
| Cc1cnc(Nc2ccc(C#N)cc2)nc1Nc1c(C)cc(Cl)cc1C [Compound 82] | 0.0026 | 0.4 |  |
| Cc1cc(Cl)cc(Br)c1Oc1ccnc(Nc2ccc(C#N)cc2)n1 [Compound 74] | 0.01 | > 100 |  |
| N#Cc1ccc(Nc2nc(Cc3c(Cl)cccc3Cl)cc(NCC(O)CO)n2)cc1 (stereo not shown) [Compound 9] | 0.037 | 58.6 |  |
| COc1cccc(CCNc2cc(Cc3c(Cl)cccc3Cl)nc(Nc3ccc(C#N)cc3)n2)c1 [Compound 8] | 8.15 | > 100 |  |
| Cc1cc(C(C)(C)C)cc(C)c1Nc1ccnc(Nc2ccc(C#N)cc2)n1 [Compound 80] | 0.011 | 8.7 |  |
| N#Cc1ccc(Nc2nccc(Nc3c(Cl)cc(C(F)(F)F)cc3Cl)n2)cc1 [Compound 66, 4-[[4-[[2,6-dichloro-4-(trifluoromethyl)-phenyl]amino]-2-pyrimidinyl]amino]benzonitrile] |  |  | IC50 (HIV-1; [3]): 0.0085 µM; CC50 [1]: 19.9 µM |
| N#Cc1ccc(Nc2cc(Cc3c(Cl)cccc3Cl)nc(NCCCCO)n2)cc1 [Compound 43] | 0.603 |  | CC50 [2, 5]: > 100 µM |
| N#Cc1ccc(Nc2nc(Cc3c(Cl)cccc3Cl)cc(NCC(O)c3ccccc3)n2)cc1 (stereo not shown) [Compound 4] | 0.315 | > 100 |  |
| N#Cc1ccc(Nc2nccc(Nc3c(Cl)cc(C#N)cc3Cl)n2)cc1 [Compound 76] | 0.0033 | 5.2 |  |
| N#Cc1ccc(Nc2nc(Cc3c(Cl)cccc3Cl)cc(NCCO)n2)cc1 [Compound 2] | 0.035 | > 100 |  |
| Cc1cc(Br)cc(C)c1Nc1ccnc(Nc2ccc(C#N)cc2)n1 [Compound 56] | 0.0023 | 1.9 |  |

| Compound | IC50 (HIV-1; [4]) [µM] | CC50 [2] [µM] | other results |
| --- | --- | --- | --- |
| CCOC(=O)Nc1cc(Cc2c(Cl)cccc2Cl)nc(Nc2ccc(C#N)cc2)n1 [Compound 20] | 0.026 | 36.5 |  |
| CCCC(=O)Nc1cc(Cc2c(Cl)cccc2Cl)nc(Nc2ccc(C#N)cc2)n1 [Compound 22] | 0.035 | 12.2 |  |
| N#Cc1ccc(Nc2nc(Cc3c(Cl)cccc3Cl)cc(NCc3ccccc3)n2)cc1 [Compound 12] | 1.68 | 55.1 |  |
| Cc1cc(C)c(N(C)c2ccnc(Nc3ccc(C#N)cc3)n2)c(C)c1 [Compound 71] | 0.0063 | 45.8 |  |
| N#CCCNc1cc(Cc2c(Cl)cccc2Cl)nc(Nc2ccc(C#N)cc2)n1 [Compound 19] | 0.006 | 53.6 |  |
| N#Cc1ccc(Nc2nc(Cc3c(Cl)cccc3Cl)cc(NCCc3ccccn3)n2)cc1 [Compound 16] | 0.389 | 41.2 |  |
| N#Cc1ccc(Nc2nccc(Sc3c(Cl)cccc3Cl)n2)cc1 [Compound 59] | 0.0012 | > 100 |  |
| N#Cc1ccc(Nc2nc(Cc3c(Cl)cccc3Cl)cc(NCCCO)n2)cc1 [Compound 3, 4-[[4-[(2,6-dichloro-phenyl)methyl]-6-[(3-hydroxypropyl)amino]-2-pyrimidinyl]amino]benzonitrile] |  |  | IC50 (HIV-1; [3]): 0.016 µM; CC50 [1]: 37.4 µM |
| N#Cc1ccc(Nc2nc(Cc3c(Cl)cccc3Cl)cc(NCCOCCO)n2)cc1 [Compound 6] | 0.02 | 24.4 |  |
| Cc1cc(C)c(Nc2ccnc(Nc3ccc(C#N)cc3N)n2)c(C)c1 [Compound 90] | 3.4 | 30.8 |  |
| Cc1cc(C)c(Nc2ccnc(Nc3ccc(C#N)c(N)c3)n2)c(C)c1 [Compound 102] | 0.0082 |  | CC50 [2, 5]: 0.5 µM |
| Cc1cc(Br)c(Nc2ccnc(Nc3ccc(C#N)cc3)n2)c(Br)c1 [Compound 61, 4-[[4-[(2,6-dibromo-4-methylphenyl)amino]-2-pyrimidinyl]amino]benzonitrile] |  |  | IC50 (HIV-1; [3]): 0.0007 µM; CC50 [1]: 0.1 µM |
| N#Cc1ccc(Nc2nc(Cc3c(Cl)cccc3Cl)cc(NCCCCO)n2)cc1 [Compound 1] | 0.027 | 49.7 |  |
| Cc1cc(C)c(Oc2ccnc(Nc3ccc(C#N)cc3)n2)c(C)c1 [Compound 58, 4-[[4-(2,4,6-trimethylphenoxy)-2-pyrimidinyl]amino]benzonitrile] |  |  | IC50 (HIV-1; [3]): 0.0029 µM; CC50 [1]: > 100 µM |
| N#Cc1ccc(Nc2cc(Cc3c(Cl)cccc3Cl)nc(NCCCO)n2)cc1 [Compound 42] | 0.352 |  | CC50 [2, 5]: 35.5 µM |
| CCCCCCCC(=O)Nc1cc(Cc2c(Cl)cccc2Cl)nc(Nc2ccc(C#N)cc2)n1 [Compound 17, N-[6-[(2,6-dichloro-phenyl)methyl]-2-[(4-cyano-phenyl)amino]-4-pyrimidinyl]octanamide] |  |  | IC50 (HIV-1; [3]): 0.167 µM; CC50 [1]: 9.1 µM; melting point: 135 to 137 °C |
| Cc1cc(C)c(Nc2cc(Nc3ccc(C#N)cc3)nc(N)n2)c(C)c1 [Compound 95] | 0.0006 | 7.7 |  |
| Cc1cccc(C)c1Nc1ccnc(Nc2ccc(C#N)cc2)n1 [Compound 57] | 0.0007 | 0.8 |  |
| Nc1nc(Cc2c(Cl)cccc2Cl)cc(Nc2ccc(Cl)cc2)n1 [Compound 30] | 0.088 |  | CC50 [2, 5]: > 20 µM |
| Cc1cnc(Nc2ccc(C#N)cc2)nc1Nc1c(Br)cc(C(C)C)cc1Br [Compound 88] | 0.0027 | 2.1 |  |
| N#Cc1ccc(Nc2nc(Cc3c(Cl)cccc3Cl)cc(NO)n2)cc1 [Compound 15, 4-[[4-[(2,6-dichloro-phenyl)methyl]-6-(hydroxyamino)-2-pyrimidinyl]amino]benzonitrile dihydrobromide.pentahydrate] | 0.003 | 9 |  |
| Nc1nc(Cc2c(Cl)cccc2Cl)cc(Nc2ccc(Br)cn2)n1 [Compound 31] | 0.024 |  | CC50 [2, 5]: 86.8 µM |
